Experimental findings from patent publication US5387599A, “Triazoles, their production and use” (Takeda Chemical Industries, Ltd., priority 1990, dated 1995) are described below.

Structures can show the parent of a compound that is named as a salt.

Test [1] deals with Aspergillus fumigatus IFO 6344. The test can be described thus: paper disk growth inhibition on agar (antifungal spectrum). Type of test: cell-based. To be noted: IFO6344, 48 h, medium A (yeast nitrogen base agar, pH 7.0), 1000 μg/ml, 8 mm disk, 2 days, 28° C., read-out: Diameter of growth inhibition zone. The method, then:
(§1) Evaluation for fungicidal acitivity of the compound (I) was carried out by the following method.
(§2) A paper disk (manufactured by TOYO SEISAKUSHO, 8mm in diameter) dipped into a methanol solution containing the compound (I) in an amount of 1000 μg/ml was placed on an agar plate containing various fungi. After the cultivation of said fungi for two days at 28° C., mesurement was made to the diameter of a growth inhibiton zone produced around the paper disk. The media used for the evaluation are as follows:
(§3) A: Yeast nitrogen base agar (pH 7.0)

For test [2], the system named is Aspergillus niger IFO 4066. The test is described as above. Type of test: cell-based. To be noted: IFO4066, 48 h, medium A (yeast nitrogen base agar, pH 7.0), 1000 μg/ml, 8 mm disk, 2 days, 28° C., read-out: Diameter of growth inhibition zone. As to the method: as §1, §2, §3
For test [3], the system named is Candida albicans IFO 0583. The test is described as above. Type of test: cell-based. To be noted: IFO0583, 48 h, medium A (yeast nitrogen base agar, pH 7.0), 1000 μg/ml, 8 mm disk, 2 days, 28° C., read-out: Diameter of growth inhibition zone. As to the method:
as §1, §2, §3

The subject of another test is Candida utilis IFO 0619. The description is as above. To be noted: Williopsis jadinii, IFO0619, 48 h, medium A (yeast nitrogen base agar, pH 7.0), 1000 μg/ml, 8 mm disk, 2 days, 28° C., read-out: Diameter of growth inhibition zone. The test is classed as cell-based. As to the method:
as §1, §2, §3

Test [4] relates to Cryptococcus neoformans IFO 0410. The description is as above. Type of test: cell-based. To be noted: IFO0410, 48 h, medium A (yeast nitrogen base agar, pH 7.0), 1000 μg/ml, 8 mm disk, 2 days, 28° C., read-out: Diameter of growth inhibition zone. The method, then:
as §1, §2, §3

Test [5] deals with Microsporum gypseum IFO 6075. The description is as above. The test is classed as cell-based. To be noted: Nannizzia gypsea, IFO6075, 48 h, medium B (Sabouraud's agar), 1000 μg/ml, 8 mm disk, 2 days, 28° C., read-out: Diameter of growth inhibition zone. The method, then: as §1
(§4) A paper disk (manufactured by TOYO SEISAKUSHO, 8mm in diameter) dipped into a methanol solution containing the compound (I) in an amount of 1000 μg/ml was placed on an agar plate containing various fungi. After the cultivation of said fungi for two days at 28° C., mesurement was made to the diameter of a growth inhibiton zone produced around the paper disk.

Test [6] relates to Trichophyton methagrophytes IFO 7522. The description is as above. The test is classed as cell-based. To be noted: IFO7522, 48 h, medium B (Sabouraud's agar), 1000 μg/ml, 8 mm disk, 2 days, 28° C., read-out: Diameter of growth inhibition zone. The method, then: as §1, §4
Test [7] deals with Trichophyton rubrum IFO 6467. Described as above. Type of test: cell-based. To be noted: IFO6467, 48 h, medium B (Sabouraud's agar), 1000 μg/ml, 8 mm disk, 2 days, 28° C., read-out: Diameter of growth inhibition zone. As to the method: as §1, §4
The subject of another test is Erysiphe graminis. The test is described as follows: preventive effect against powdery mildew of barley (Experimental Method 1). The test is classed as in vivo, Erysiphe graminis (on barley). To be noted: 200 ppm; barley seedling, 8 days after inoculation. The method, then:
Experimental Method 1 Experiment for preventive effect against powdery mildew of barley (Erysiphe graminis) […] The resultant solution was diluted with water to obtain a predetermined concentration of the active ingredient. To this diluted solution was added a sticker Dyne®[manufactured by Takeda Chemical Industries, Ltd., and including polyoxyethylenenonylphenylether (10 wt. %) and potassium ligninsulfonate (10 wt. %)] in a ratio of 0.03 wt. % (end concentration) to prepare a spray. Thus obtained spray was sprayed to a barley seedling (about one week seeding) such that the spray was dripped from the seedling. After air-drying, the spore of susceptible leaf with Erysiphe graminis was forcibly deposited for inoculation. The spore was maintained at an artificial inoculation chamber at a temperature of 20° C. for 8 days after the inoculation. Thereafter, the area rate of lesion was examined to represent the preventive value by the following coefficient. […] Preventive value 2: area rate of lesion 11-20% Preventive value 1: area rate of lesion 21-50% Preventive value 0: area rate of lesion 51% or more

The test system of another test is Pyricularia oryzae. Type of test: in vivo, Pyricularia oryzae (on rice). To be noted: 200 ppm; rice seedling, 6 days after inoculation.
The subject of another test is Candida albicans. The test can be described thus: protective effect against experimental infection in mice. To be noted: in Mus musculus, 168 h.

In the case of `CCN(CC)C(=S)S[C@H](C)[C@](O)(Cn1cncn1)c1ccc(F)cc1F.Cl` [Compound 2, [(2R,3R)-3-(2,4-difluorophenyl)-3-hydroxy-4-(1H-1,2,4-triazol-1-yl)-2-butyl] N,N-diethyldithiocarbamate hydrochloride], the zone of inhibition – broadly, the extent of the growth-free halo in a diffusion test – at 1000 µg/mL is 50 mm in [1]; 35 mm in test [2]; 30 mm in [3]; 40 mm in the test on Candida utilis IFO 0619; 30 mm in test [4]; 48 mm in [5]. In addition, the figures for the zone of inhibition at 1000 µg/mL in test [6] and in [7] were 48 mm and 40 mm, respectively. For the same compound, the “Preventive Value for Erysiphe graminis” value in the test with Erysiphe graminis was 3 (area rate of lesion 0-10%). In addition, in the test with Pyricularia oryzae, the “Preventive Value for Pyricularia oryzae” value is given as 3 (area rate of lesion 0-14%). Besides, the 50% effect level in the test with Candida albicans (po) (ED50) was put at a dose of 0.5 mg/kg.
For the compound `Cc1cccc(N(C)C(=S)S[C@H](C)[C@](O)(Cn2cncn2)c2ccc(F)cc2F)c1` [Compound 9, [(2R,3R)-3-(2,4-difluorophenyl)-3-hydroxy-4-(1H,1,2,4-triazol-1-yl)-2-butyl] N-methyl-N-(3-methylphenyl) dithiocarbamate hydrochloride], the zone of inhibition at 1000 µg/mL was found to be 15 mm in test [1]; 13 mm in [2]; 25 mm in test [3]; 20 mm in the test with Candida utilis IFO 0619; 20 mm in [4]; 20 mm in [5]. The zone of inhibition at 1000 µg/mL in [6] stood at 15 mm; in test [7] it was 30 mm. For the same compound, in the test with Candida albicans (po), the ED50 (usually the dose that gives a 50% effect, or the effect in half of the subjects) was 2 mg/kg.
For `CCN(CC)C(=S)S[C@H](C)[C@](O)(Cn1cncn1)c1ccc(F)cc1F` (racemic) [Compound 1, [(2RS,3RS)-3-(2,4-difluorophenyl)-3-hydroxy-4-(1H-1,2,4-triazol-1-yl)-2butyl] N,N-diethyldithiocarbamate], the zone of inhibition at 1000 µg/mL in test [1] was 45 mm; in test [2] it was 28 mm; in test [3] it was 40 mm; in the test on Candida utilis IFO 0619, 32 mm; in test [4], 35 mm; in test [5], 40 mm. Moreover, the results for the zone of inhibition at 1000 µg/mL in test [6] and in test [7] were 40 mm and 35 mm, respectively. Moreover, the “Preventive Value for Erysiphe graminis” value in the test with Erysiphe graminis was 3 (area rate of lesion 0-10%). For the same compound, the “Preventive Value for Pyricularia oryzae” value in the test with Pyricularia oryzae is recorded as 3 (area rate of lesion 0-14%). Further, the ED50 with Candida albicans (sc) is 2 mg/kg.
